Columns and labels:
[1] = cited from earlier work
[2] = Clinical study: single radiolabelled topical dose to axilla or palm of healthy male subjects; assay type: in vivo, human; details: for Cmax: male, human, plasma, topical, 3.05 mg
Description: Up to four cohorts were to be enrolled (Cohort A: unoccluded axilla; Cohort B: occluded axilla; Cohort C: unoccluded palm; Cohort D: occluded palm). Six subjects were to be dosed in each cohort and complete the study procedures.
On the day of dosing, subjects will receive the study drug applied to the axilla or palm. Each subject will only receive a single dose of study drug which will be applied to the test site and remain on the application site for 8 hours. Serial blood samples will be collected throughout treatment. An interim analysis using simulations will be conducted after each cohort to determine the likelihood of exceeding the safety cover for Cmax or AUC and the likelihood of obtaining quantifiable concentrations sufficient to determine the half-life in the subsequent cohorts.

[3] = Population pharmacokinetic model (IV plus dermal occluded axilla data); assay type: in vivo, human
From the text: Of the drug that was available systemically, 9.70% (66.7%) was absorbed through a zero order process.

[4] = MALDI imaging of distribution in skin layers; assay type: in vitro ADME, human; details: twenty-four hours after single finite topical dose
From the text: Matrix-assisted laser desorption/ionization (MALDI) has emerged as a powerful and diverse technology for analyzing the spatial distribution of endogenous and exogenous compounds directly from a tissue section. [See Seeley E H, Caprioli R M. MALDI imaging mass spectrometry of human tissue: method challenges and clinical perspectives. Trends Biotechnol. 29(3), 136-143 (2011); and Svatos A. Mass spectrometric imaging of small molecules. Trends Biotechnol. 28(8), 425-434 (2010)]. […] Anal Bioanal Chem. (2013); 405(4):1159-70]. MALDI imaging in human skin tissue sections: focus on various matrices and enzymes.

[5] = Irritation potential of topical solution; details: solution comprising 2.2% w/w
[6] = PopPK, IV and dermal occluded axilla

OC(c1ccccc1)(c1ccccc1)C12CC[N+](CCOCc3ccccc3)(CC1)CC2 [umeclidinium, 4-[hydroxy(diphenyl)methyl]-1-{2-[(phenylmethyl)oxy]ethyl}-1-azoniabicyclo[2.2.2]octane]
tolerability in thorough QT study ([1]; 0.5 mg inhaled once daily for 10 days): well tolerated
tolerability in clinical development program ([1]; oral, intravenous and oral inhalation routes): well tolerated
Cmax ([2]; occluded axilla (Cohort B), CV 122%): 7.92 pg/mL
Cmax ([2]; unoccluded axilla (Cohort A), CV 144%): 2.33 pg/mL
samples quantifiable up to ([2]; occluded axilla (Cohort B), post dose): 16 to 72 h
mean percent dose recovered from the skin surface ([2]; occluded axilla (Cohort B), range 69.2%-81.7%): 75.4%
median time to maximum concentration ([2]; occluded axilla (Cohort B), range 2 h-24 h): 13 h
plasma concentrations ([2]; occluded palm (Cohort D)): no quantifiable plasma concentrations
mean percent dose recovered from the skin surface ([2]; occluded palm (Cohort D), range 45.6%-59.9%): 52.5%
mean percent dose recovered from the skin surface ([2]; unoccluded axilla (Cohort A), end of 8 hour application, range 77.7-84.1%): 80.6%
quantifiable plasma concentrations up to ([2]; unoccluded axilla (Cohort A), one subject, post-dose): up to 72 hours
median time to maximum plasma concentration ([2]; unoccluded axilla (Cohort A), range 12 h-30 h): 13 h
CL2 Intercompartmental Clearance, Mean (RSE %) [3, 6]: 39376 (26.0%) mL/h
CL Elimination clearance, Mean (RSE %) [3, 6]: 45241 (23.6%) mL/h
F1 Fraction of the bioavailable drug absorbed through a zero order process, Mean (RSE %) [3, 6]: 0.097 (66.7%)
Ka First order absorption rate constant, Mean (RSE %) [3, 6]: 0.094 (54.1%)
Tlag Lag time for the first order absorption process, Mean (RSE %) [3, 6]: 8.61 (15.3%) hr
V1 Volume of central compartment, Mean (RSE %) [3, 6]: 7726 (17.6%) mL
V2 Volume of peripheral compartment, Mean (RSE %) [3, 6]: 261058 (57.3%) mL
F Absolute plasma bioavailability following administration to occluded axilla, Mean (RSE %) ([3]; PopPK, fraction): 0.0019 (55.3%)
bioavailability ([3]; human, plasma, topical, 3.05 mg, occluded axilla, RSE 55.3%, read-out: estimated absolute plasma bioavailability): 0.19%
share of systemically available drug absorbed through a zero order process ([3]; occluded axilla, RSE 66.7%): 9.70%
qualitative distribution in skin layers [4]: penetrated to the deeper sections of the dermis and accumulated in the area where the sweat glands are present

OC(c1ccccc1)(c1ccccc1)C12CC[N+](CCOCc3ccccc3)(CC1)CC2 [umeclidinium bromide]
irritation potential [5]: low irritation potential
